Measured values: patent publication US20040266732A1, “Therapeutic agents, methods, and treatments” (priority 2002, published 2004)

Experiments:
H226 cell cancer tumors = assay: Induced-tumor NOD/SCID mouse model (Example 7); type: in vivo, NOD/SCID mice; settings: 30 mg/kg intraperitoneal every other day for two weeks
Description: A standard induced-tumor NOD/SCID mouse model was used to perform this investigation, with the mouse model being based on protocols for human xenograft systems developed at the National Cancer Institute. H226 cell cancer tumors were induced in NOD/SCID mice; tumors at sizes approximately 100 mm^3 were treated with 30 mg/kg MT103 or a control containing only vehicle (2.5% DMSO in distilled water) administered in intraperitoneal injections every other day for two weeks.

HOP-92 = assay: Anchorage-independent colony-forming assay; type: cell-based, human; settings: for % Inhibition: colonies Day 14
Description: (§1) Testing was conducted employing standard tissue culture techniques and an anchorage-independent colony-forming assay.
(§2) MT103 was tested against the lung carcinoma cell lines NCI-H226, NCI-H522, and HOP-92. An anchorage-independent colony-forming assay was employed. For the experiment, the cells were harvested, centrifuged to remove the media, and suspended in Iscove's Modified Dulbecco's Medium (IMDM). Samples were taken to determine cell density. The cell count was determined with a Coulter Model Z1 cell counter and viability was measured with propidium iodide staining followed by analysis on a Coulter EPICS XL flow cytometer. Each cell line was plated at 1×10^5 cells per dish (35 mm) in IMDM with 20% FBS and 1% methylcellulose containing the appropriate concentration of test compound or DMSO control. Five concentrations of each compound and a DMSO control were tested in each of the three cell lines. The colonies per plate were counted on Day 14 after the initiation of treatment. The cell lines were propagated under sterile conditions and incubated at 37° C. in HEPA-filtered CO2 tissue culture incubators with 5% CO2 and 95% humidity. The cell line was subcultured weekly to bi-weekly and used in experiments. The test compounds were kept refrigerated under light protected conditions until dissolved in DMSO.
(§3) Anticellular effects of the compounds on the tumor line were assessed with a colony-forming assay. Briefly, cell were harvested and adjusted to 3×10^6 viable cells/mL in IMDM. Compounds (200×) were prepared in DMSO and serially diluted in DMSO to give appropriate testing concentrations. Cells (100 μL), compound or DMSO control (16.5 μL) and IMDM (183.5 μL) were added to the appropriate assay tubes (12×75 mm) containing 3 mL of complete media, IMDM with 20% FBS and 1% methylcellulose. Tubes were then vortexed and 1.1 mL of the cell suspension was added to each of two 35 mm dishes. These dishes were then incubated for 14 days in HEPA-filtered CO2 tissue culture incubators with 5% CO2 and 95% humidity. The colonies in each dish were then counted and the duplicates were averaged and reported

NCI-H522 = assay: Anchorage-independent colony-forming assay; type: cell-based, human; settings: for % Inhibition: colonies Day 14
Description: as §1, §2, §3

NCI-H226 = assay: Anchorage-independent colony-forming assay; type: cell-based, human; settings: for % Inhibition: colonies Day 14
Description: as §1, §2, §3

In the case of CC1(C)C2CC[C@@]1(CS(=O)(=O)N(C1CCCCC1)C1CCCCC1)C(O)C2 (stereo partly shown) [MT103], the toxicity (H226 cell cancer tumors) is reported as “without any evidence of toxicity”, the tumor volume (H226 cell cancer tumors; FIG. 3) is reported as “tumor volume was significantly decreased” and the mice body weight (H226 cell cancer tumors; FIG. 4) is reported as “did not have deleterious effect on mice body weight”. For the same compound, the H226 tumor progression (H226 cell cancer tumors; p=0.038) was “slowed down H226 tumor progression significantly”, the IC50 (HOP-92; HOP-92, colony-forming assay) was 24.2 µM and the “% Inhibition” value (HOP-92; HOP-92, 0.8 μM) was 0%. The “% Inhibition” value (HOP-92; HOP-92, 4 μM) was 0%, the “% Inhibition” value (HOP-92; HOP-92, 20 μM) was 43.3% and the “% Inhibition” value (HOP-92; HOP-92, 100 μM) was 100%. For the same compound, the “% Inhibition” value (HOP-92; HOP-92, 500 μM) was 100%, the “−logGI50 value” (HOP-92; HOP-92, see Table 5) was 4.6 and the IC50 (NCI-H522; NCI-H522, colony-forming assay) was 81.7 µM. The “% Inhibition” value (NCI-H522; NCI-H522, 0.8 μM) was 0%, the “% Inhibition” value (NCI-H522; NCI-H522, 4 μM) was 0% and the “% Inhibition” value (NCI-H522; NCI-H522, 20 μM) was 0%. For the same compound, the “% Inhibition” value (NCI-H522; NCI-H522, 100 μM) was 57.2%, the “% Inhibition” value (NCI-H522; NCI-H522, 500 μM) was 100% and the “−logGI50 value” (NCI-H522; NCI-H522, see Table 5) was 4.1. For the same compound, the IC50 (NCI-H226; NCI-H226, colony-forming assay) was 8.39 µM, the “% Inhibition” value (NCI-H226; NCI-H226, 0.8 μM) was 3.1% and the “% Inhibition” value (NCI-H226; NCI-H226, 4 μM) was 36.7%. For the same compound, the “% Inhibition” value (NCI-H226; NCI-H226, 20 μM) was 65.6%, the “% Inhibition” value (NCI-H226; NCI-H226, 100 μM) was 92.2% and the “% Inhibition” value (NCI-H226; NCI-H226, 500 μM) was 99.7%. The “−logGI50 value” (NCI-H226; NCI-H226, see Table 5) was 5.1.
